According to US6369030B1, “Inhibitors of histone acetyltransferases (HATs) and uses thereof” (The Rockfeller University, priority 1999, dated 2002):
Several values for one entry are separate records, joined by “and”; a condition that tells them apart may be missing. Equal entries are not always repeated. Where two headings read alike, the source gives them in different places. Residues, ends and D or L forms follow the SMILES beside them. *: point of attachment. CoASCH2CO = CC(C)(COP(=O)(O)OP(=O)(O)OC[C@H]1O[C@@H](n2cnc3c(N)ncnc32)[C@H](O)[C@@H]1OP(=O)(O)O)[C@@H](O)C(=O)NCCC(=O)NCCSCC(=O)*

Key:
[1] = molecular target: T1, p300 (Homo sapiens, UniProt Q09472); experiment: HAT activity inhibition assay, p300, mixed histones as substrate; format: biochemical
T1 construct: Full length PCAF and p300 proteins were prepared and purified according to previously described methods; made in house
Procedure: (§1) Screening of the peptide CoA conjugate for inhibition of HAT activity of PCAF and p300 was carried out according to standard HAT assay procedures (Ogryzko et al., 1996; Yang et al., 1996; Schiltz et al., 1999) using commercially available mixed calf histone substrates. […] Full length PCAF and p300 proteins were prepared and purified according to previously described methods (Schiltz et al., 1999). HAT inhibition assay procedures were adapted from previously described methods (gryzko et al., 1996; Yang et al., 1996; Schiltz et al., 1999). Briefly, substrate concentrations were 10 μM acetyl-CoA (NEN, ^14C, 0.02 μCi/μL), 33 μg/mL mixed histones (Boehringer); buffer conditions-50 mM Tris-HCl (pH 8), 10 mM sodium butyrate 1 mM phenylmethyl sulfonyl fluoride, 1 mM dithiothreitol, 0.1 mM N,N,N′,N′-ethylenediamine tetraacetic acid and 10% v/v glycerol. Reactions employed purified recombinant p300 and PCAF (Schiltz et al., 1999) at concentrations of 6 nM and 27 nM, respectively. A range of at least 5 inhibitor concentrations were used. Assays were carried out in 0.5 mL plastic tubes at 30° C. and the reaction volumes were 30 μL. Reactions were initiated with the radioactive acetyl-CoA (4 μL) after allowing the enzyme/buffer/histone/inhibitor mixture to equilibrate at 30° C. for 10 min, and reactions quenched after 1 min with 7.5 μL 5×SDS gel load. Mixtures were run out on 15% SDSPAGE visualized with Coomassie blue, dried, and radioactivity quantified by phosphorimage analysis (Molecular Dynamics). In all cases, background acetylation (in the absence of enzyme) was subtracted from the total signal.

[2] = molecular target: T2, PCAF (Homo sapiens, UniProt Q92831); experiment: HAT activity inhibition assay, PCAF, mixed histones as substrate; format: biochemical; details: for IC50: [acetyl-CoA]=10 M, [mixed histones]=33 μg/mL, standard errors estimated ±20%
T2 construct: Full length PCAF and p300 proteins were prepared and purified according to previously described methods; made in house
Procedure: as §1

[3] = molecular target: T1, p300; experiment: HAT inhibition assay, p300, nucleosomes as substrate; format: biochemical; details: inhibitor 20 μM
Procedure: (§2) Full length PCAF and p300 proteins were prepared and purified according to previously described methods (Schiltz et al., 1999). HAT inhibition assay procedures were adapted from previously described methods (gryzko et al., 1996; Yang et al., 1996; Schiltz et al., 1999). […] Reactions employed purified recombinant p300 and PCAF (Schiltz et al., 1999) at concentrations of 6 nM and 27 nM, respectively. A range of at least 5 inhibitor concentrations were used. Assays were carried out in 0.5 mL plastic tubes at 30° C. and the reaction volumes were 30 μL. Reactions were initiated with the radioactive acetyl-CoA (4 μL) after allowing the enzyme/buffer/histone/inhibitor mixture to equilibrate at 30° C. for 10 min, and reactions quenched after 1 min with 7.5 μL 5×SDS gel load. Mixtures were run out on 15% SDSPAGE visualized with Coomassie blue, dried, and radioactivity quantified by phosphorimage analysis (Molecular Dynamics). In all cases, background acetylation (in the absence of enzyme) was subtracted from the total signal.
(§3) 3) FIG. 3. Assessment of p300 and PCAF HAT Activities in p300/PCAF Mixtures. (A) p300 and PCAF HAT activities with mixed histones as substrates.

[4] = molecular target: T2, PCAF; format: biochemical; details: nucleosomes as substrate, inhibitor 20 μM
Procedure: as §2, §3

[5] = tested on: p300 and acetyl-CoA dependent transcription from chromatin template; experiment: In vitro chromatin-template transcription dependent on p300 HAT activity; format: biochemical, human
Procedure: (§4) FIG. 4B and C: Transcription from naked DNA and chromatin templates. DNA (28 ng) and freshly assembled chromatin templates (with an equivalent amount of DNA) were incubated with or without activator, Gal4-VP16 (30 ng) for 20 min at 30° C.; 25 ng of baculovirus expressed, highly purified p300 (full length) and 1.5 μM of acetyl-CoA were added as indicated. Following the addition of nuclear extract (source of general transcription factors) and NTPs, transcription reactions were incubated and processed as described.
The chromatin template was reconstituted by incubation of purified proteins (HeLa core histones, NAP1 and rh TopoI) with a 5.4 kb plasmid (p20855G5MLC2AT) that contains a 690 bp promoter region (5 Gal4 binding sites and the adenovirus major late promoter with a G-less cassette) flanked on both sides by the 5 nucleosome positioning sequence from the sea urchin 55 rRNA gene (Cote et al., 1995). Assembled chromatin was structurally characterized by supercoiling and micrococcal nuclease (MNase) assay (data not shown).
Chromatin template for transcription studies were assembled on a ˜5.4 kb plasmid (p2085S G5MLC2AT) with purified human core histones, rh TpopI, and NAP1 as described (T. K. K. et al., manuscript in preparation). Prior to use in the transcription experiment, assembled, chromatin was subjected to supercoiling and Mnase assay. […]

[6] = tested on: naked DNA transcription; experiment: In vitro transcription from naked DNA template; format: biochemical; details: 10 μM inhibitor; average of 4 independent experiments
Procedure: as §4
Recombinant His6-tagged nucleosome assembly protein 1 (NAP1) and transcription activator Gal4-VP16 were expressed in E. coli and purified with nitrilloacetic acid-agarose (Qiagen) as specified by the manufacturer. […] In vitro transcription assays were carried out in 50 μL reaction mixtures containing either 28 ng of DNA or an equivalent amount of chromatin.
(A) Outline of the in vitro transcription protocol. (B) and (C) Transcription form naked DNA and chromatin templates. DNA (28 ng) and freshly assembled chromatin templates (with an equivalent amount of DNA) were incubated with or without activator, Gal4-VP16 (30 ng) for 20 min at 30°, 25 ng of baculovirus expressed, highly purified p300 (full length) and 1.5 μM of acetyl-CoA were added as indicated. […]

[7] = [acetyl-CoA]=10 M, [mixed histones]=33 μg/mL, standard errors estimated ±20%, read-out: IC50 with p300
[8] = mixed histones, individual enzyme, inhibitor 20 μM

T2 sequence (Q92831 whole entry): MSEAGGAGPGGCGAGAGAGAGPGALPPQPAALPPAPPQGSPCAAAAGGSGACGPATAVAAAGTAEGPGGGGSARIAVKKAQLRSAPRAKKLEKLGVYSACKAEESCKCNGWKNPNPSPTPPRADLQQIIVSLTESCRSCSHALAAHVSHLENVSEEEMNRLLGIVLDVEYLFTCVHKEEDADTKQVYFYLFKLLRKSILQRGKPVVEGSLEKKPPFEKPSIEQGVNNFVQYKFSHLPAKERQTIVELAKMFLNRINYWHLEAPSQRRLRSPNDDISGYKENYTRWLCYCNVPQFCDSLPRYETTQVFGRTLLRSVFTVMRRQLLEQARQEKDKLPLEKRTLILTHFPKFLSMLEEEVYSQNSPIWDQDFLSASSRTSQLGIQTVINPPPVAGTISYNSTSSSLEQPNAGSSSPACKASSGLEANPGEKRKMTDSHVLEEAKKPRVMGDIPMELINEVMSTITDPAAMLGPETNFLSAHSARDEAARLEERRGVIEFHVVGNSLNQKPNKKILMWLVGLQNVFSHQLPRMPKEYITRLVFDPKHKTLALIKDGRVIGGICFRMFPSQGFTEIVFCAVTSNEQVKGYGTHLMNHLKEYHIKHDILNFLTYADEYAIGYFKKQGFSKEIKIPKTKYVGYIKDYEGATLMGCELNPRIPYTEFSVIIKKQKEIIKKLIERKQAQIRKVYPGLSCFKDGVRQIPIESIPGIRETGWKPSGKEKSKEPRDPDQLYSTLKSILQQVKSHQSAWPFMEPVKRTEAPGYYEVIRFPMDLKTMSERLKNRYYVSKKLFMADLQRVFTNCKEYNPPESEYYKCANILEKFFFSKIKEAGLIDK
T1 sequence (Q09472 whole entry): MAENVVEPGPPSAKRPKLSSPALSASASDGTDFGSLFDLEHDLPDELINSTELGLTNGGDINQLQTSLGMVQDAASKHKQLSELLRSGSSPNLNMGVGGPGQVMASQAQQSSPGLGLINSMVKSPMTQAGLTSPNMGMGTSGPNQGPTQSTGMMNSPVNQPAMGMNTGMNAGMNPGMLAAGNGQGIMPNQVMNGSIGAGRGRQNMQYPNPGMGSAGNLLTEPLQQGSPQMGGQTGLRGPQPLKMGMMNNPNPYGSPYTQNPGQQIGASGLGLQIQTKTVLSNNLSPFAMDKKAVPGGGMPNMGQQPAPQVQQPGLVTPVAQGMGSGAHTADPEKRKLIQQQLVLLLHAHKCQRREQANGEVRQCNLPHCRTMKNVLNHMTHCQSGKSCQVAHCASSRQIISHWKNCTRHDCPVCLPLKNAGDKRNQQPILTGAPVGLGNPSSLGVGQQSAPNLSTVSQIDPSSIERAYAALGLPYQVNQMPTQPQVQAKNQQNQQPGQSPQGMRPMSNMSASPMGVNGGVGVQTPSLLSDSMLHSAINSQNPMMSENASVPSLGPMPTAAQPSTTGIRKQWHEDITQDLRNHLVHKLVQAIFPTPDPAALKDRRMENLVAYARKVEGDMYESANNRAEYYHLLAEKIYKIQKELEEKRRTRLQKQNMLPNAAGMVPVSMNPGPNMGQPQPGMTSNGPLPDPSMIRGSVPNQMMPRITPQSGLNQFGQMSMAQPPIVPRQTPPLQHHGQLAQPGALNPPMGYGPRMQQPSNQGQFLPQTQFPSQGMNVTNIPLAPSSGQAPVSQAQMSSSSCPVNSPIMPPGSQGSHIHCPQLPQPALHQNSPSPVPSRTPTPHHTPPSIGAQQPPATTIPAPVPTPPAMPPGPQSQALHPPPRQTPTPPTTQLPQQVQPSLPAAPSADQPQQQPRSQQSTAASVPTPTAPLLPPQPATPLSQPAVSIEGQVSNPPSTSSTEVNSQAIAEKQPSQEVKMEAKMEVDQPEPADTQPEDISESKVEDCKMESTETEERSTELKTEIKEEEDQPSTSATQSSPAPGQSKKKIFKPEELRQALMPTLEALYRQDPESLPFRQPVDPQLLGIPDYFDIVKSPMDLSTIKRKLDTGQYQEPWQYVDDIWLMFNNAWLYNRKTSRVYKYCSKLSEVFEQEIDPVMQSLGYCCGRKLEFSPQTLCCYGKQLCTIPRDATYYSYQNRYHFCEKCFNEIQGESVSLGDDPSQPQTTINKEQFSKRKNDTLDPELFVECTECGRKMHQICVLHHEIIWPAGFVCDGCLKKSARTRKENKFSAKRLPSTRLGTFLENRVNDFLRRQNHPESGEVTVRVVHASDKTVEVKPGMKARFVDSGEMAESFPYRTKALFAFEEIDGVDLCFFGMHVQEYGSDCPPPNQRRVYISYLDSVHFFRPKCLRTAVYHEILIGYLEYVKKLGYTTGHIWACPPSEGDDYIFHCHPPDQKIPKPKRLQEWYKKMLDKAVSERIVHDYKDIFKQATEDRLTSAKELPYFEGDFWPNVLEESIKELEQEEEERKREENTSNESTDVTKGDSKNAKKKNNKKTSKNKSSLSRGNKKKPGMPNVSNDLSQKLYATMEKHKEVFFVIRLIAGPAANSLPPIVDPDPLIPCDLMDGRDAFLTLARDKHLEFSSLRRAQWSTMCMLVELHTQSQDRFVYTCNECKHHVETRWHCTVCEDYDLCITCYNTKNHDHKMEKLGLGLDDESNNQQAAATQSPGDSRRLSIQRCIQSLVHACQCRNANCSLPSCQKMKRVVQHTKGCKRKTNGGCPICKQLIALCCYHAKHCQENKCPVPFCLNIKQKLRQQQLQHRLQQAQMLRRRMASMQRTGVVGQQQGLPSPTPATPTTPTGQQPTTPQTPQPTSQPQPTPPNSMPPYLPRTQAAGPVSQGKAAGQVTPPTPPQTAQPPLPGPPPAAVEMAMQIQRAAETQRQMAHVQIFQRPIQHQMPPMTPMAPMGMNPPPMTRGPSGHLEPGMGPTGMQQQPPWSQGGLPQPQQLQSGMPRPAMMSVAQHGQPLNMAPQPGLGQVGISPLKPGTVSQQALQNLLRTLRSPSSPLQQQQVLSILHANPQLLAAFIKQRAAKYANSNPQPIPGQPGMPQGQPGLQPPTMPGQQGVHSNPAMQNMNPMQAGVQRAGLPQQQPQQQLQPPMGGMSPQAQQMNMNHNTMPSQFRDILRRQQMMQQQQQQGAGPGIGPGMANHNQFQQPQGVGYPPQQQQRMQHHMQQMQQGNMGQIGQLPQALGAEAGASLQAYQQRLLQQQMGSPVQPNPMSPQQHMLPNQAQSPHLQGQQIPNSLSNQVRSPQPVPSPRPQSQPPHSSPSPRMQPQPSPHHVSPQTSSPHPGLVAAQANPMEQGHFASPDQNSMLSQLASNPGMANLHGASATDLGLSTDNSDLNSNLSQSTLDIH

SMILES	inhibition of p300 HAT activity, in words ([1]; mixed histones)	IC50 [2] [nM]	inhibition of PCAF HAT activity, in words ([2]; mixed histones)	IC50 [1, 7]	selectivity in blocking p300 HAT activity (versus PCAF) [1] [fold]	IC50 ([1]; mixed calf histone substrates, read-out: IC50 of p300 acetyltransferase activity) [nM]	p300 HAT activity blocked [1, 8]	inhibition with PCAF [2, 8]	p300 inhibition (nucleosome acetylation) [3]	PCAF inhibition (nucleosome acetylation) [4]	transcriptional activation from chromatin template in the presence of p300-PCAF mixtures ([5]; p300-PCAF mixtures, data not shown)	inhibition of p300 and acetyl-CoA dependent transcription activation from the chromatin template ([5]; p300 preincubated with 10 μM inhibitor)	inhibition of naked DNA transcription [6]
CC(C)(COP(=O)(O)OP(=O)(O)OC[C@H]1O[C@@H](n2cnc3c(N)ncnc32)[C@H](O)[C@@H]1OP(=O)(O)O)[C@@H](O)C(=O)NCCC(=O)NCCS [CoASH, reference compound]	Neither the H3-20 peptide (which lacked CoA attachment) nor CoASH itself were potent HAT inhibitors	> 20000	Neither the H3-20 peptide (which lacked CoA attachment) nor CoASH itself were potent HAT inhibitors										
CC(=O)NCC(=O)NCC(=O)N[C@@H](CCCCNC(=O)CSCCNC(=O)CCNC(=O)[C@H](O)C(C)(C)COP(=O)(O)OP(=O)(O)OC[C@H]1O[C@@H](n2cnc3c(N)ncnc32)[C@H](O)[C@@H]1OP(=O)(O)O)C(=O)N[C@@H](C)C(=O)N1CCC[C@H]1C(=O)N[C@@H](CCCNC(=N)N)C(=O)N[C@@H](CCCCN)C(N)=O [Compound H3-CoA-7] (Ac-GGK(CoASCH2CO)APRK-NH2)		> 20000	not achieved	> 30000 nM									
CC(=O)N[C@@H](CCCCNC(=O)CSCCNC(=O)CCNC(=O)[C@H](O)C(C)(C)COP(=O)(O)OP(=O)(O)OC[C@H]1O[C@@H](n2cnc3c(N)ncnc32)[C@H](O)[C@@H]1OP(=O)(O)O)C(N)=O [Lys-CoA]		~200000		~500 nM and 500 nM	~200	~500	greater than 90%	less than 10%	greater than 90%	less than 10%	abolished transcriptional activation	completely abolished	15-20%
